Patent US7956069B2, “Compounds” (AstraZeneca AB, priority 2006, dated 2011)

Tests used:
cloned human M4 receptor = molecular target: T1, cloned human M4 receptor (Homo sapiens, UniProt P08173); test: hM4 receptor GTPγS binding; assay type: biochemical; conditions: CHO membranes, [35S]GTPγS binding
T1 construct: purchased Perkin-Elmer RBHM4M; host or cells: Chinese hamster ovary cells (CHO)
T1 sequence (P08173 1-479): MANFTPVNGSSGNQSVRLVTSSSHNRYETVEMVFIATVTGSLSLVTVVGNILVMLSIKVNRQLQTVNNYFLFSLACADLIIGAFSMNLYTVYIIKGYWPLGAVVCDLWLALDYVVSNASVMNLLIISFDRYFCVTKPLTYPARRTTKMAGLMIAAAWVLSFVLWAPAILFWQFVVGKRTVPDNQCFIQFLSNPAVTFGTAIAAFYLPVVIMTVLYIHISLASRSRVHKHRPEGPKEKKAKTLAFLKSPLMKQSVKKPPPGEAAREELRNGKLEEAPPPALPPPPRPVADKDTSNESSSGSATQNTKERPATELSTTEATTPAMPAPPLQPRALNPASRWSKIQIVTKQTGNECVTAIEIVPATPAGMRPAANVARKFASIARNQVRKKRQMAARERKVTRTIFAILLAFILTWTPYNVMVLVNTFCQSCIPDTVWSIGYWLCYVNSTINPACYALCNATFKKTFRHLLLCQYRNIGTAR
Protocol: HM4 Receptor GTPγS Binding
Membranes produced from Chinese hamster ovary cells (CHO) expressing the cloned human M4 receptor (human Muscarinic receptor subtype 4, gene bank access NM_000741), were obtained from Perkin-Elmer (RBHM4M). The membranes were thawed at 37° C., passed 3 times through a 23-gauge blunt-end needle, diluted in the GTPγS binding buffer (50 mM Hepes, 20 mM NaOH, 100 mM NaCl, 1 mM EDTA, 5 mM MgCl2, pH 7.4, 100 μM DTT). The EC50, IC50 and Emax of the compounds of the invention were evaluated from 10-point dose-response curves (three fold concentration range) done in 60 μl in 384-well non-specific binding surface plate (Corning). Ten microliters from the dose-response curves plate (5× concentration) were transferred to another 384 well plate containing the following: 10 μg of hM4 membranes, 500 μg of Flashblue beads (Perkin-Elmer) and GDP in a 25 μl volume. An additional 15 μl containing 3.3× (55000 dpm) of GTPγ^35S (0.4 nM final) were added to the wells resulting in a total well volume of 50 μl. Basal and maximal stimulated [^35S]GTPγS binding were determined in absence and presence of 30 μM of acetylcholine agonist. The membranes/beads mix were pre-incubated for 15 minutes at room temperature with 40 μM GDP prior to distribution in plates (20 μM final). The reversal of acetylcholine-induced stimulation (10 μM final) of [^35S]GTPγS binding was used to assay the antagonist properties (IC50) of the compounds. The plates were incubated for 60 minutes at room temperature with shaking, then centrifuged at 2000 rpm for 5 minutes. The radioactivity (cpm) were counted in a Trilux (Perkin-Elmer).
(§1) Values of EC50, IC50 and Emax were obtained using sigmoidal fits of a non-linear curve-fitting program (XLfit version 5.0.6 from ID Business Solutions Limited, Guildford, UK) of percent stimulated [^35S]GTPγS binding vs. log(molar ligand).
All EC50 and IC50 values are reported as arithmetic means±standard error of mean of ‘n’ independent experiments. […] The IC50 was the concentration of the compound of the invention at which 50% inhibition of acetylcholine [^35S]GTPγS binding stimulation has been observed.

cloned human M2 receptor = molecular target: T2, cloned human M2 receptor (Homo sapiens, UniProt P08172); test: hM2 receptor GTPγS binding; assay type: biochemical; conditions: CHO membranes, [35S]GTPγS binding
T2 construct: purchased Perkin-Elmer RBHM2M; host or cells: Chinese hamster ovary cells (CHO)
T2 sequence (P08172 1-466): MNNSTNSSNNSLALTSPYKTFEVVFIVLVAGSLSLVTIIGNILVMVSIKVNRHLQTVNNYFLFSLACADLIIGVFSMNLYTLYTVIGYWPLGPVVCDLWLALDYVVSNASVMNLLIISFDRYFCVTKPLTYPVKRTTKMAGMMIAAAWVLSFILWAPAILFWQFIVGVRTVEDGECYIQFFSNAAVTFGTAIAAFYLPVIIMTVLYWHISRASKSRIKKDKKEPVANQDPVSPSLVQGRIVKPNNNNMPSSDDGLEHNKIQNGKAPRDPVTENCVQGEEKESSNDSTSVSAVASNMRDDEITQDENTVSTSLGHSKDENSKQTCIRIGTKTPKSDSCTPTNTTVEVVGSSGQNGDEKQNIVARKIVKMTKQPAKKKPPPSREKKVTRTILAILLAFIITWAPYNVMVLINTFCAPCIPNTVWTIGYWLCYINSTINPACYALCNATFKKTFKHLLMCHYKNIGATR
Protocol: hM2 Receptor GTPγS Binding
Membranes produced from Chinese hamster ovary cells (CHO) expressing the cloned human M2 receptor (human Muscarinic receptor subtype 2, gene bank access NM_000739), were obtained from Perkin-Elmer (RBHM2M). The membranes were thawed at 37° C., passed 3 times through a 23-gauge blunt-end needle, diluted in the GTPγS binding buffer (50 mM Hepes, 20 mM NaOH, 100 mM NaCl, 1 mM EDTA, 5 mM MgCl2, pH 7.4, 100 μM DTT). The EC50, IC50 and Emax of the compounds of the invention were evaluated from 10-point dose-response curves (three fold concentration range) done in 60 μl in 384-well non-specific binding surface plate (Corning). Ten microliters from the dose-response curves plate (5× concentration) were transferred to another 384 well plate containing the following: 10 μg of hM2 membranes, 500 μg of Flashblue beads (Perkin-Elmer) and GDP in a 25 μl volume. An additional 15 μl containing 3.3× (55000 dpm) of GTPγ^35S (0.4 nM final) were added to the wells resulting in a total well volume of 50 μl. Basal and maximal stimulated [^35S]GTPγS binding were determined in absence and presence of 30 μM of acetylcholine agonist. The membranes/beads mix were pre-incubated for 15 minutes at room temperature with 25 μM GDP prior to distribution in plates (12.5 μM final). The reversal of acetylcholine-induced stimulation (2 μM final) of [^35S]GTPγS binding was used to assay the antagonist properties (IC50) of the compounds. The plates were incubated for 60 minutes at room temperature with shaking, then centrifuged at 2000 rpm for 5 minutes. The radioactivity (cpm) were counted in a Trilux (Perkin-Elmer).
as §1
All EC50 and IC50 values are reported as arithmetic means ± standard error of mean of ‘n’ independent experiments. […] The IC50 was the concentration of the compound of the invention at which 50% inhibition of acetylcholine [^35S]GTPγS binding stimulation has been observed.

Compound: O=C1CCCN1CCC(=O)N1CCC(N2CCC(N3C(=O)N[C@@H]4CCCC[C@H]43)CC2)CC1
- EC50 (cloned human M4 receptor): > 30 µM
- EC50 (cloned human M2 receptor): 1 µM

Compound: CCOC(=O)N1CCC(N2CCC(N3C(=O)N[C@H]4CCCC[C@@H]43)CC2)CC1
- EC50 (cloned human M4 receptor): 0.33 µM
- EC50 (cloned human M2 receptor): 0.12 µM

Compound: O=C(C1CC1)N1CCC(N2CCC(N3C(=O)N[C@@H]4CCCC[C@H]43)CC2)CC1
- EC50 (cloned human M4 receptor): > 30 µM
- EC50 (cloned human M2 receptor): > 30 µM

Compound: CC(C)OC(=O)N1CCC(N2CCC(N3C(=O)N[C@@H]4CCCC[C@@H]43)CC2)CC1
- EC50 (cloned human M4 receptor): 4.5 µM
- EC50 (cloned human M2 receptor): 2.5 µM

Compound: CC(C)OC(=O)N1CCC(N2CCC(N3C(=O)N[C@H]4CCCC[C@@H]43)CC2)CC1
- EC50 (cloned human M4 receptor): 1.3 µM
- EC50 (cloned human M2 receptor): 0.76 µM

Compound: O=C(C1CCCC1)N1CCC(N2CCC(N3C(=O)N[C@H]4CCCC[C@@H]43)CC2)CC1
- EC50 (cloned human M4 receptor): > 30 µM
- EC50 (cloned human M2 receptor): 2.6 µM

Compound: CCOC(=O)N1CC[C@H](N2CCC(N3C(=O)N[C@H]4CCCC[C@@H]43)CC2)C1
- EC50 (cloned human M4 receptor): 9.4 µM
- EC50 (cloned human M2 receptor): 7.3 µM

Compound: CC(C)OC(=O)N1CCC(N2CCC(N3C(=O)C[C@H]4CCCC[C@@H]43)CC2)CC1
- EC50 (cloned human M4 receptor): 4.2 µM
- EC50 (cloned human M2 receptor): 1.2 µM

Compound: CN1C(=O)N(C2CCN(C3CCN(C(=O)C4CC4)CC3)CC2)[C@H]2CCCC[C@@H]21
- EC50 (cloned human M4 receptor): > 30 µM
- EC50 (cloned human M2 receptor): > 30 µM

Compound: O=C1CCCN1CCC(=O)N1CCC(N2CCC(N3C(=O)N[C@H]4CCCC[C@@H]43)CC2)CC1
- EC50 (cloned human M4 receptor): 5.1 µM
- EC50 (cloned human M2 receptor): 0.5 µM

Compound: COc1ccccc1C(=O)N1CCC(N2CCC(N3C(=O)N[C@@H]4CCCC[C@H]43)CC2)CC1
- EC50 (cloned human M4 receptor): > 30 µM
- EC50 (cloned human M2 receptor): > 30 µM

Compound: O=C(OCCF)N1CCC(N2CCC(N3C(=O)N[C@H]4CCCC[C@@H]43)CC2)CC1
- EC50 (cloned human M4 receptor): 1.1 µM
- EC50 (cloned human M2 receptor): 0.38 µM
